Reference: PubChem BioAssay AID248 (DTP/NCI, 2004)
Values joined by “and” are separate entries in the source; they are usually repeats but may differ in a detail not shown here. Equal entries are not always repeated. Inconclusive results and toxic doses are left out. Cut-off read from the data, not from the text of the source: active = T/C of 150% or more; inactive = T/C below 125%.

System: L1210 leukemia ip in BDF1 mice, survival T/C
Assay: NCI In Vivo Anticancer Drug Screen. Data for tumor model L1210 Leukemia (intraperitoneal) in B6D2F1 (BDF1) mice
Conditions: endpoint: mean survival time, higher = longer survival
Method in brief: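 Tumor cells were implanted, animals were treated, and survival was followed. The result divides the treated measurement by the vehicle-control measurement.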

[1] = dose: 100.0 mg/kg/injection, schedule: Q01DX009 (ip), vehicle: Klucel (hydroxypropylcellulose) (HPC)
[2] = dose: 100.0 mg/kg/injection, schedule: Q04DX003 (ip), vehicle: Klucel (hydroxypropylcellulose) (HPC)
[3] = dose: 200.0 mg/kg/injection, schedule: Q01DX009 (ip), vehicle: Klucel (hydroxypropylcellulose) (HPC)
[4] = dose: 200.0 mg/kg/injection, schedule: Q04DX003 (ip), vehicle: Klucel (hydroxypropylcellulose) (HPC)
[5] = dose: 400.0 mg/kg/injection, schedule: Q01DX009 (ip), vehicle: Klucel (hydroxypropylcellulose) (HPC)
[6] = dose: 400.0 mg/kg/injection, schedule: Q04DX003 (ip), vehicle: Klucel (hydroxypropylcellulose) (HPC)
[7] = dose: 50.0 mg/kg/injection, schedule: Q01DX009 (ip), vehicle: Klucel (hydroxypropylcellulose) (HPC)
[8] = dose: 100.0 mg/kg/injection, schedule: Q04DX002 (ip), vehicle: Klucel (hydroxypropylcellulose) (HPC)
[9] = dose: 100.0 mg/kg/injection, schedule: Q04DX003 (ip), vehicle: saline with Tween-80
[10] = dose: 200.0 mg/kg/injection, schedule: Q04DX003 (ip), vehicle: saline with Tween-80
[11] = dose: 50.0 mg/kg/injection, schedule: Q04DX003 (ip), vehicle: saline with Tween-80

Measured: T/C

O=C(O)C1CC=CCCC1 (stereo not drawn)
inactive: [1] 96 % of control | [2] 101 % of control | [3] 96 % of control | [4] 101 % of control | [5] 93 % of control | [6] 98 % of control

CN(/C(N)=N/[N+](=O)[O-])c1cccnc1
inactive: dose: 6.0 mg/kg/injection, schedule: Q04DX002 (ip), vehicle: Klucel (hydroxypropylcellulose) (HPC) 103 % of control | dose: 12.0 mg/kg/injection, schedule: Q04DX002 (ip), vehicle: Klucel (hydroxypropylcellulose) (HPC) 103 % of control | dose: 25.0 mg/kg/injection, schedule: Q04DX002 (ip), vehicle: Klucel (hydroxypropylcellulose) (HPC) 103 % of control | [7] 103 % of control | dose: 50.0 mg/kg/injection, schedule: Q04DX002 (ip), vehicle: Klucel (hydroxypropylcellulose) (HPC) 95 % of control | [1] 107 % of control | [8] 91 % of control and 92 % of control

COc1ccc(OC)c(CBr)c1CBr
inactive: dose: 5.0 mg/kg/injection, schedule: Q01DX001 (ip), vehicle: saline 101 % of control | dose: 10.0 mg/kg/injection, schedule: Q01DX001 (ip), vehicle: saline 98 % of control | dose: 20.0 mg/kg/injection, schedule: Q01DX001 (ip), vehicle: saline 101 % of control | dose: 40.0 mg/kg/injection, schedule: Q01DX001 (ip), vehicle: saline 98 % of control | dose: 80.0 mg/kg/injection, schedule: Q01DX001 (ip), vehicle: saline 104 % of control

OC1(c2ccccc2)C=C(c2ccccc2)C=C(c2ccccc2)O1 (stereo not drawn)
inactive: dose: 50.0 mg/kg/injection, schedule: Q01DX001 (ip), vehicle: Klucel (hydroxypropylcellulose) (HPC) 87 % of control | dose: 100.0 mg/kg/injection, schedule: Q01DX001 (ip), vehicle: Klucel (hydroxypropylcellulose) (HPC) 92 % of control | dose: 200.0 mg/kg/injection, schedule: Q01DX001 (ip), vehicle: Klucel (hydroxypropylcellulose) (HPC) 94 % of control

CCCCCCOc1ccc(N=[N+]([O-])c2ccc(OCCCCCC)cc2)cc1
inactive: dose: 75.0 mg/kg/injection, schedule: Q01DX001 (ip), vehicle: other 91 % of control | dose: 150.0 mg/kg/injection, schedule: Q01DX001 (ip), vehicle: other 91 % of control | dose: 300.0 mg/kg/injection, schedule: Q01DX001 (ip), vehicle: other 87 % of control

ClC1=C(Cl)C(Cl)(Cl)C1(Cl)Cl
inactive: dose: 75.0 mg/kg/injection, schedule: Q01DX001 (ip), vehicle: carboxymethylcellulose (CMC) 109 % of control

COc1cc(N(CCCl)CCCl)c(OC)cc1C=Nc1ccccc1C(=O)O
inactive: dose: 2.6 mg/kg/injection, schedule: Q01DX009 (ip), vehicle: carboxymethylcellulose (CMC) 108 % of control | dose: 4.4 mg/kg/injection, schedule: Q01DX009 (ip), vehicle: carboxymethylcellulose (CMC) 116 % of control | dose: 5.5 mg/kg/injection, schedule: Q01DX001 (ip), vehicle: Klucel (hydroxypropylcellulose) (HPC) 109 % of control | dose: 6.6 mg/kg/injection, schedule: Q01DX009 (ip), vehicle: carboxymethylcellulose (CMC) 123 % of control | dose: 10.0 mg/kg/injection, schedule: Q01DX009 (ip), vehicle: carboxymethylcellulose (CMC) 123 % of control | dose: 11.0 mg/kg/injection, schedule: Q01DX001 (ip), vehicle: Klucel (hydroxypropylcellulose) (HPC) 111 % of control | dose: 19.0 mg/kg/injection, schedule: Q01DX001 (ip), vehicle: carboxymethylcellulose (CMC) 117 % of control | dose: 22.0 mg/kg/injection, schedule: Q01DX001 (ip), vehicle: Klucel (hydroxypropylcellulose) (HPC) 117 % of control | dose: 29.0 mg/kg/injection, schedule: Q01DX001 (ip), vehicle: carboxymethylcellulose (CMC) 118 % of control

c1ccc(B2Nc3ccccc3-c3ccccc32)cc1
inactive: [9] 98 % of control | [10] 96 % of control | dose: 400.0 mg/kg/injection, schedule: Q04DX003 (ip), vehicle: saline with Tween-80 98 % of control

O=S(=O)(c1cc(Cl)ccc1Cl)N1CCc2ccccc2C1
inactive: dose: 100.0 mg/kg/injection, schedule: Q04DX002 (ip), vehicle: gum acacia 104 % of control | dose: 200.0 mg/kg/injection, schedule: Q04DX002 (ip), vehicle: gum acacia 93 % of control | dose: 400.0 mg/kg/injection, schedule: Q04DX002 (ip), vehicle: gum acacia 93 % of control

O=C1OCC/C1=C/OCCO/C=C1\CCOC1=O
inactive: [8] 94 % of control | dose: 200.0 mg/kg/injection, schedule: Q04DX002 (ip), vehicle: Klucel (hydroxypropylcellulose) (HPC) 90 % of control

CS(=O)(=O)OCCN(CCOS(C)(=O)=O)c1ccc(C=Nc2cc(Br)c(O)c(Br)c2)cc1
inactive: dose: 20.0 mg/kg/injection, schedule: Q04DX003 (ip), vehicle: Klucel (hydroxypropylcellulose) (HPC) 120 % of control | dose: 40.0 mg/kg/injection, schedule: Q04DX003 (ip), vehicle: Klucel (hydroxypropylcellulose) (HPC) 104 % of control | dose: 80.0 mg/kg/injection, schedule: Q04DX003 (ip), vehicle: Klucel (hydroxypropylcellulose) (HPC) 96 % of control | [2] 113 % of control

ClCc1ccc2ccccc2n1
inactive: [11] 104 % of control | [9] 102 % of control | [10] 93 % of control

CC12CCC3(CC1CCC(OC(=O)c1ccccc1)C2)OCCO3 (stereo not drawn)
inactive: dose: 100.0 mg/kg/injection, schedule: Q01DX009 (ip), vehicle: other 93 % of control | dose: 100.0 mg/kg/injection, schedule: Q04DX003 (ip), vehicle: other 108 % of control | dose: 200.0 mg/kg/injection, schedule: Q01DX009 (ip), vehicle: other 95 % of control | dose: 200.0 mg/kg/injection, schedule: Q04DX003 (ip), vehicle: other 106 % of control | dose: 400.0 mg/kg/injection, schedule: Q01DX009 (ip), vehicle: other 90 % of control | dose: 400.0 mg/kg/injection, schedule: Q04DX003 (ip), vehicle: other 95 % of control

COc1ccc(CCN2CC(=O)NC(=O)C2)cc1OC
inactive: dose: 25.0 mg/kg/injection, schedule: Q01DX009 (ip), vehicle: Klucel (hydroxypropylcellulose) (HPC) 95 % of control | dose: 25.0 mg/kg/injection, schedule: Q04DX003 (ip), vehicle: Klucel (hydroxypropylcellulose) (HPC) 104 % of control | [7] 96 % of control | dose: 50.0 mg/kg/injection, schedule: Q04DX003 (ip), vehicle: Klucel (hydroxypropylcellulose) (HPC) 104 % of control | [1] 101 % of control | [2] 101 % of control | [3] 101 % of control | [4] 101 % of control | [5] 101 % of control | [6] 109 % of control

O=C1C(Br)=C(Br)c2ccccc21
inactive: dose: 50.0 mg/kg/injection, schedule: Q01DX001 (ip), vehicle: carboxymethylcellulose (CMC) 100 % of control | dose: 100.0 mg/kg/injection, schedule: Q01DX001 (ip), vehicle: carboxymethylcellulose (CMC) 99 % of control

O=C(NC(=O)c1ccc(Cl)c(Cl)c1)Nc1ccccc1C(F)(F)F
inactive: [2] 102 % of control | [4] 98 % of control | [6] 98 % of control

COc1cccc(N2C(=O)C3C(C2=O)C2(Cl)C(Cl)=C(Cl)C3(Cl)C2(Cl)Cl)c1 (stereo not drawn)
inactive: [1] 98 % of control | [3] 94 % of control | [5] 89 % of control

N/C(=N/N=C/c1ccccn1)N[N+](=O)[O-]
inactive: dose: 12.5 mg/kg/injection, schedule: Q01DX009 (ip), vehicle: saline with Tween-80 105 % of control | dose: 12.5 mg/kg/injection, schedule: Q04DX003 (ip), vehicle: saline with Tween-80 119 % of control | dose: 25.0 mg/kg/injection, schedule: Q01DX009 (ip), vehicle: saline with Tween-80 101 % of control | dose: 25.0 mg/kg/injection, schedule: Q04DX003 (ip), vehicle: saline with Tween-80 105 % of control | [11] 114 % of control
